Measured values as given in patent US20240150330A1, “CHROMANS AND BENZOFURANS AS 5-HT1A AND TAAR1 AGONISTS” (Sunovion Pharmaceuticals Inc., priority 2021, published 2024).

Biological target: T1, TAAR1 receptor (UniProt Q96RJ0)
T1 sequence (Q96RJ0 1-339): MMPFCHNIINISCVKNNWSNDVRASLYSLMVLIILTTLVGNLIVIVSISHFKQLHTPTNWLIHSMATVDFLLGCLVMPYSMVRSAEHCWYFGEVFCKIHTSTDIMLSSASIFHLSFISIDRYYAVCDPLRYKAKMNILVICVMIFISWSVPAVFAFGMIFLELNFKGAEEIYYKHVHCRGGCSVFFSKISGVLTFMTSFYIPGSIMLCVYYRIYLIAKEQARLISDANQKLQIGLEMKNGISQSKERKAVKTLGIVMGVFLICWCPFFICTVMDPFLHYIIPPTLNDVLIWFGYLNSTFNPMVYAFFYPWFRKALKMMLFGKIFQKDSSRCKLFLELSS
Assay: TAAR1 Agonist cAMP Assay
Format: cell-based, human or mouse
Details: CHO-K1 cells expressing TAAR1; cAMP HTRF; 30 minutes at room temperature
Method: CHO-K1 cells expressing the human TAAR1 receptor (Accession number NP_612200.1) or mouse TAAR1 receptor (Accession number NP_444435.1) were grown in media (Advanced DMEM supplemented with 1% dialyzed fetal bovine serum) without antibiotics. The cells were detached by gentle flushing with phosphate buffered saline containing 5 mM EDTA, recovered by centrifugation and resuspended in assay buffer (Krebs-Ringers Henseleit buffer: 5 mM KCl, 1.25 mM MgSO4, 124 mM NaCl, 25 mM HEPES, 13.3 mM Glucose, 1.25 mM KH2PO4, 1.45 mM CaCl2, 0.5 g/L BSA, supplemented with 1 mM isobutylmethylxanthine). Testing was performed in 384-well plates. 5 μl of cells (3000 cells) were mixed with 5 μl of the test compound diluted in assay buffer and then incubated for 30 minutes at room temperature. cAMP levels were determined using the Cisbio cAMP Gs dynamic HTRF kit (Cisbio, Bedford, MA). The results of the testing are shown in Table 3, with EC50 ranges designated as follows: • A=0.1 μM to 1 μM • B=0.01 μM to <0.1 μM • C=0.001 μM to <0.01 μM • D=0.0001 μM to <0.001 μM

SMILES	EC50
CNC[C@@H]1CCOc2c(-c3cnn(C)c3C)cccc21 [Compound 48]	1 to 10 nM
CNC[C@@H]1CCOc2c(-c3cnc[nH]3)cccc21 [Compound 45, {[(4R)-8-(1H-imidazol-5-yl)-3,4-dihydro-2H-1-benzopyran-4-yl]methyl}(methyl)amine]	1 to 10 nM
CNC[C@@H]1CCOc2c(-c3cnn(C)c3)cccc21 [Compound 54, (R)—N-methyl-1-(8-(1-methyl-1H-pyrazol-4-yl)chroman-4-yl)methanamine]	1 to 10 nM
CNC[C@@H]1CCOc2c(-c3cncnc3)cccc21 [Compound 32]	1 to 10 nM
CNC[C@@H]1CCOc2c(-c3ccc(C)nc3)cccc21 [Compound 14, (R)—N-methyl-1-(8-(6-methylpyridin-3-yl)chroman-4-yl)methanamine]	1 to 10 nM
CNC[C@@H]1CCOc2c(-c3cn(C)nc3C)cccc21 [Compound 49]	10 to 100 nM
CNC[C@@H]1CCOc2c(-c3ccn(C)n3)cccc21 [Compound 55, (R)—N-methyl-1-(8-(1-methyl-1H-pyrazol-3-yl)chroman-4-yl)methanamine]	10 to 100 nM
CNC[C@@H]1CCOc2c(-c3ccnnc3)cccc21 [Compound 41]	10 to 100 nM
CNC[C@@H]1CCOc2c(-c3ccnc(C)c3C)cccc21 [Compound 42]	10 to 100 nM
CNC[C@@H]1CCOc2c(-c3ccnc(C)c3)cccc21 [Compound 18, (R)—N-methyl-1-(8-(2-methylpyridin-4-yl)chroman-4-yl)methanamine]	1 to 10 nM
CNC[C@@H]1CCOc2c(-c3cnc(C)nc3)cccc21 [Compound 43]	100 to 1000 nM
CNC[C@@H]1CCOc2c(-c3cscn3)cccc21 [Compound 50]	1 to 10 nM
CNC[C@@H]1CCOc2c(-c3ccc(F)cc3)cccc21 [Compound 53, (R)-1-(8-(4-fluorophenyl)chroman-4-yl)-N-methylmethanamine]	1 to 10 nM
CNC[C@@H]1CCOc2c(-c3cncs3)cccc21 [Compound 39]	1 to 10 nM
CNC[C@@H]1CCOc2c(-c3cncn3C)cccc21 [Compound 37]	10 to 100 nM
CNC[C@@H]1CCOc2c(-c3nccs3)cccc21 [Compound 56, (R)—N-methyl-1-(8-(thiazol-2-yl)chroman-4-yl)methanamine]	10 to 100 nM
CNC[C@@H]1CCOc2c(-c3ccc(C(F)(F)F)nc3)cccc21 [Compound 8, methyl({[(4R)-8-[6-(trifluoromethyl)pyridin-3-yl]-3,4-dihydro-2H-1-benzopyran-4-yl]methyl})amine]	10 to 100 nM
CNC[C@@H]1CCOc2c(-c3ccnc(C(F)(F)F)c3)cccc21 [Compound 10]	1 to 10 nM
CNC[C@@H]1CCOc2c(-c3cnsc3)cccc21 [Compound 57, (R)-1-(8-(isothiazol-4-yl)chroman-4-yl)-N-methylmethanamine]	1 to 10 nM
CNC[C@H]1CCOc2c(-c3ccnc(C)c3)cccc21 [Compound 16, (S)—N-methyl-1-(8-(2-methylpyridin-4-yl)chroman-4-yl)methanamine]	10 to 100 nM

More lines, now with the values ahead:

EC50	SMILES
1 to 10 nM	CNC[C@@H]1CCOc2c(-c3cc(C)ncc3C)cccc21 [Compound 33]
0.1 to 1 nM	Cc1ccc(-c2cccc3c2OCC[C@H]3CN)cn1 [Compound 13, (R)-(8-(6-methylpyridin-3-yl)chroman-4-yl)methanamine]
10 to 100 nM	NC[C@@H]1CCOc2c(-c3cnccn3)cccc21 [Compound 34]
10 to 100 nM	CNC[C@@H]1CCOc2c(-c3ccncc3C)cccc21 [Compound 21, methyl({[(4R)-8-(3-methylpyridin-4-yl)-3,4-dihydro-2H-1-benzopyran-4-yl]methyl})amine]
10 to 100 nM	NC[C@H]1CCOc2c(-c3cccnc3)cccc21 [Compound 24]
10 to 100 nM	Cc1ncc(-c2cccc3c2OCC[C@H]3CN)cn1 [Compound 26]
1 to 10 nM	Cc1cc(-c2cccc3c2OCC[C@H]3CN)c(C)cn1 [Compound 19, (R)-(8-(2,5-dimethylpyridin-4-yl)chroman-4-yl)methanamine]
1 to 10 nM	COc1cnccc1-c1cccc2c1OCC[C@H]2CN [Compound 11, [(4R)-8-(3-methoxypyridin-4-yl)-3,4-dihydro-2H-1-benzopyran-4-yl]methanamine]
10 to 100 nM	NC[C@@H]1CCOc2c(-c3ccc(C(F)(F)F)nc3)cccc21 [Compound 7, 1-[(4R)-8-[6-(trifluoromethyl)pyridin-3-yl]-3,4-dihydro-2H-1-benzopyran-4-yl]methanamine]
1 to 10 nM	NC[C@@H]1CCOc2c(-c3ccnnc3)cccc21 [Compound 40]
0.1 to 1 nM	NC[C@@H]1CCOc2c(-c3cccnc3)cccc21 [Compound 22]
0.1 to 1 nM	NC[C@@H]1CCOc2c(-c3ccnc(C(F)(F)F)c3)cccc21 [Compound 9, 1-[(4R)-8-[2-(trifluoromethyl)pyridin-4-yl]-3,4-dihydro-2H-1-benzopyran-4-yl]methanamine]
1 to 10 nM	Cc1cc(C)c(-c2cccc3c2OCC[C@H]3CN)cn1 [Compound 29, 1-[(4R)-8-(4,6-dimethylpyridin-3-yl)-3,4-dihydro-2H-1-benzopyran-4-yl]methanamine]
10 to 100 nM	Cc1ncccc1-c1cccc2c1OCC[C@H]2CN [Compound 27]
1 to 10 nM	Cn1cncc1-c1cccc2c1OCC[C@H]2CN [Compound 36]
1 to 10 nM	Cc1cc(-c2cccc3c2OCC[C@H]3CN)ccn1 [Compound 17, (R)-(8-(2-methylpyridin-4-yl)chroman-4-yl)methanamine]
1 to 10 nM	Cc1cc(-c2cccc3c2OCC[C@@H]3CN)ccn1 [Compound 15, (S)-(8-(2-methylpyridin-4-yl)chroman-4-yl)methanamine]
10 to 100 nM	CNC[C@H]1CCOc2c(-c3cccnc3)cccc21 [Compound 25]
1 to 10 nM	CNCC1CCOc2c(-c3cnccc3C)cccc21 (stereo in doubt) [Compound 6, (R)—N-methyl-1-(8-(4-methylpyridin-3-yl)chroman-4-yl)methanamine]
1 to 10 nM	Cc1ccncc1-c1cccc2c1OCC[C@H]2CN [Compound 5, (R)-(8-(4-methylpyridin-3-yl)chroman-4-yl)methanamine]
100 to 1000 nM	CNC[C@@H]1CCOc2c(-c3ccncc3OC)cccc21 [Compound 12, (R)-1-(8-(3-methoxypyridin-4-yl)chroman-4-yl)-N-methylmethanamine]
1 to 10 nM	NC[C@@H]1CCOc2c(-c3cncnc3)cccc21 [Compound 31]
10 to 100 nM	Cc1nccc(-c2cccc3c2OCC[C@H]3CN)c1C [Compound 30, (R)-(8-(2,3-dimethylpyridin-4-yl)chroman-4-yl)methanamine]
0.1 to 1 nM	NC[C@@H]1CCOc2c(-c3cncs3)cccc21 [Compound 38]
10 to 100 nM	CNC[C@@H]1CCOc2c(-c3cnccn3)cccc21 [Compound 35]
1 to 10 nM	NC[C@@H]1CCOc2c(-c3cnc[nH]3)cccc21 [Compound 44, 1-[(4R)-8-(1H-imidazol-5-yl)-3,4-dihydro-2H-1-benzopyran-4-yl]methanamine]
1 to 10 nM	Cc1cnccc1-c1cccc2c1OCC[C@H]2CN [Compound 20, (R)-(8-(3-methylpyridin-4-yl)chroman-4-yl)methanamine]
10 to 100 nM	CNC[C@@H]1CCOc2c(-c3cccnc3C)cccc21 [Compound 28]
